Read-outs that look alike come from different tables or passages of the source. Starred links: 1 amine or outer side, 2 acyl side, 3 side chain; linkers in the order of their positions; H or OH if unused. Positions of bridges follow the written chain, without caps; N, C: chain ends. Non-standard residues stand in square brackets, D forms with d. Residues, ends and D or L forms follow the SMILES beside them. ξ: configuration not given here. *: point of attachment. Phe(4-CF3) = N[C@@H](Cc1ccc(C(F)(F)F)cc1)C(=O)O; NMePhe(3-Cl) = CN[C@@H](Cc1cccc(Cl)c1)C(=O)O; hhPhe = N[C@@H](CCCc1ccccc1)C(=O)O; NMeF = CN[C@@H](Cc1ccccc1)C(=O)O; NMeGABA = CN(CCCC(=O)[*:2])[*:1]; NMeI = CC[C@H](C)[C@H](NC)C(=O)O; NMeβAla = CN(CCC(=O)[*:2])[*:1]; NMeξIle = CC[C@H](C)C(NC)C(=O)O; NMeL = CN[C@@H](CC(C)C)C(=O)O; NMeV = CN[C@H](C(=O)O)C(C)C; NMeA = CN[C@@H](C)C(=O)O; Piperidide = C1CCN(*)CC1; dNMeA = CN[C@H](C)C(=O)O; β3hA = C[C@H](N)CC(=O)O; Sar = CNCC(=O)O; tBu = CC(C)(C)*
Assays:
[1] = Metabolic stability in human hepatic microsome; type: in vitro ADME; conditions: microsomes
[2] = PAMPA (parallel artificial membrane permeability assay); type: in vitro ADME; conditions: for Papp at 18 hours, 50 µM: PAMPA
Summary of the method: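 Artificial membrane was 10% (w/v) egg lecithin plus 0.5% (w/v) cholesterol in dodecane on a PVDF filter. A 10 mM DMSO stock was added at 0.5% (v/v) to donor buffer (50 mM MOPSO, pH 6.5, 5.0% glycocholic acid). After 18 h at 37 °C, LC/MS or LC/UV gave donor and acceptor levels for Pe.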

[3] = pH 7.4, human hepatic microsome, NADPH(+), read-out: CL NADPH(+)
[4] = membrane permeation rate (Pe), 50 mM MOPSO buffer pH 6.5 with 5.0% glycocholic acid, 37° C., 18 hours, read-out: iPAMPA Pe

SMILES	microsomal CLint at 1 uM ([1]; human, pH 7.4, CL NADPH(+)) [µL/min/mg]	Papp at 18 hours, 50 µM ([2]; pH 6.5) [×10⁻⁶ cm/s]	microsomal CLint at 1 uM [1, 3] [µL/min/mg]	Papp at 18 hours, 50 µM [2, 4] [×10⁻⁶ cm/s]	iPAMPA Pe ([2]; membrane permeation rate (Pe), 50 mM MOPSO buffer pH 6.5 with 5.0% glycocholic acid, 37° C., 18 hours)
CC[C@H](C)C1C(=O)N[C@H](C(=O)N2CCCCC2)CC(=O)N(C)CC(=O)N(C)CC(=O)N[C@@H]([C@@H](C)O)C(=O)N(C)[C@@H](Cc2ccccc2)C(=O)N(C)[C@@H](CC(C)C)C(=O)N[C@@H](COC(C)(C)C)C(=O)N(C)[C@@H](CC(C)C)C(=O)N1C (stereo partly drawn) [DP-60] ([Sar][Sar]T[NMeF][NMeL]S(tBu)[NMeL][NMeξIle]D-Piperidide; lactam N-9)	145	42			
CC[C@H](C)[C@H]1C(=O)N[C@H](C(=O)N2CCCCC2)CC(=O)N(C)[C@@H](C)C(=O)N(C)[C@@H](CC(C)C)C(=O)N(C)[C@@H](Cc2ccccc2)C(=O)N[C@@H]([C@@H](C)O)C(=O)N(C)CC(=O)N(C)[C@@H](CC(C)C)C(=O)N[C@@H](COC(C)(C)C)C(=O)N1C [DP-152] ([NMeA][NMeL][NMeF]T[Sar][NMeL]S(tBu)[NMeI]D-Piperidide; lactam N-9)			93	61	
CC[C@H](C)[C@H]1C(=O)N[C@@H](COC(C)(C)C)C(=O)N(C)[C@@H](C(C)C)C(=O)N[C@@H](C)CC(=O)N(C)[C@@H](CC(C)C)C(=O)N(C)[C@@H](Cc2ccccc2)C(=O)N[C@@H](CC(C)C)C(=O)N(C)[C@@H](CC(C)C)C(=O)N[C@@H]([C@@H](C)O)C(=O)N(C)CC(=O)N1C [DP-821] (cyclo(L[NMeL]T[Sar][NMeI]S(tBu)[NMeV][β3hA][NMeL][NMeF]))			547	62	
CC[C@H](C)[C@@H]1NC(=O)[C@H](Cc2ccccc2)N(C)C(=O)[C@H](Cc2ccccc2)NC(=O)[C@H](C(C)C)N(C)C(=O)[C@H](CC(C)C)N(C)C(=O)[C@H](CC(C)C)NC(=O)[C@@H](C)NC(=O)C[C@@H](C(=O)N2CCCCC2)NC(=O)[C@H]([C@@H](C)O)NC(=O)[C@H](C)NC(=O)[C@H](C)N(C)C1=O [DP-226] ([dA]L[NMeL][NMeV]F[NMeF]I[NMeA]ATD-Piperidide; lactam N-11)			46	32	
CC[C@H](C)[C@H]1C(=O)N(C)[C@@H](C)C(=O)N(C)[C@@H](CC(C)C)C(=O)N[C@@H](COC(C)(C)C)C(=O)N(C)[C@@H](CC(C)C)C(=O)N[C@@H](C)CC(=O)N(C)[C@@H](C)C(=O)N(C)[C@@H](Cc2ccccc2)C(=O)N[C@@H](CC(C)C)C(=O)N(C)[C@@H](CC(C)C)C(=O)N[C@@H]([C@@H](C)O)C(=O)N1C [DP-817] (cyclo(L[NMeL]T[NMeI][NMeA][NMeL]S(tBu)[NMeL][β3hA][NMeA][NMeF]))			165	25	
CC[C@H](C)[C@H]1C(=O)NCC(=O)N(C)[C@@H](Cc2cccc(Cl)c2)C(=O)N[C@@H]([C@@H](C)O)C(=O)N(C)[C@@H](CC(C)C)C(=O)N[C@@H](CC(C)C)C(=O)N[C@@H](C)CC(=O)N(C)[C@H](C)C(=O)N(C)[C@@H](CC(C)C)C(=O)N[C@@H](Cc2ccccc2)C(=O)N(C)[C@@H](CC(C)C)C(=O)N[C@@H](C(C)C)C(=O)N1C [DP-762] (cyclo(F[NMeL]V[NMeI]G[NMePhe(3-Cl)]T[NMeL]L[β3hA][dNMeA][NMeL]))	81	13			
CC[C@H](C)[C@@H]1NC(=O)[C@H]([C@@H](C)O)NC(=O)[C@H](C)N(C)C(=O)[C@H](CC(C)C)N(C)C(=O)[C@H](Cc2ccccc2)N(C)C(=O)[C@H](Cc2ccccc2)N(C)C(=O)[C@H](C)N(C)C(=O)[C@H](CC(C)C)N(C)C(=O)[C@@H](C(C)C)NC(=O)C[C@@H](C(=O)N2CCCCC2)NC1=O [DP-172] ([dV][NMeL][NMeA][NMeF][NMeF][NMeL][NMeA]TID-Piperidide; lactam N-10)			25		7.0E−05
CC[C@H](C)[C@H]1C(=O)N[C@@H]([C@@H](C)O)C(=O)N(C)CC(=O)N(C)[C@@H](CC(C)C)C(=O)N[C@H](C(=O)N2CCCCC2)CC(=O)N(C)[C@H](C)C(=O)N[C@@H](CC(C)C)C(=O)N(C)[C@@H](CC(C)C)C(=O)N(C)[C@@H](Cc2ccccc2)C(=O)N[C@@H](C)C(=O)N(C)[C@@H](Cc2ccccc2)C(=O)N1C [DP-105] ([dNMeA]L[NMeL][NMeF]A[NMeF][NMeI]T[Sar][NMeL]D-Piperidide; lactam N-11)	60	45			
CC(C)C[C@H]1C(=O)N[C@H](C(=O)N(C)[C@@H](Cc2ccccc2)C(=O)N(C)[C@@H](Cc2ccccc2)C(=O)N[C@@H](C)C(=O)N2CCCCC2)CC(=O)N(C)[C@@H](C)C(=O)N(C)[C@@H](Cc2ccccc2)C(=O)N[C@@H]([C@@H](C)O)C(=O)N(C)[C@@H](C)C(=O)N(C)[C@@H](CC(C)C)C(=O)N(C)[C@@H](CC(C)C)C(=O)N[C@@H](C(C)C)C(=O)N1C [DP-211] ([NMeA][NMeF]T[NMeA][NMeL][NMeL]V[NMeL]D[NMeF][NMeF]A-Piperidide; lactam N-9)			178	3.2	
CC[C@H](C)[C@H]1C(=O)NCC(=O)N(C)[C@@H](C)C(=O)N[C@@H](CC(C)C)C(=O)N[C@@H](C)CC(=O)N(C)[C@@H](C)C(=O)N[C@@H](CC(C)C)C(=O)N(C)[C@@H](C)C(=O)N[C@@H]([C@@H](C)O)C(=O)N2CCC[C@H]2C(=O)N(C)[C@@H](Cc2cccc(Cl)c2)C(=O)N[C@@H](Cc2ccc(C(F)(F)F)cc2)C(=O)N1C [DP-810] (cyclo(G[NMeA]L[β3hA][NMeA]L[NMeA]TP[NMePhe(3-Cl)][Phe(4-CF3)][NMeI]))	46	14			
CC[C@H](C)[C@@H]1NC(=O)[C@H](CC(C)C)NC(=O)[C@H](C(C)C)NC(=O)[C@H](CC(C)C)N(C)C(=O)[C@H](CC(C)C)NC(=O)[C@H](CCCc2ccccc2)NC(=O)[C@H]([C@@H](C)O)NC(=O)[C@H](C)N(C)C(=O)[C@H](CC(C)C)NC(=O)[C@H](C)N(C)C(=O)C[C@@H](C(=O)N2CCCCC2)NC1=O [DP-729] ([NMeA]L[NMeA]T[hhPhe]L[NMeL]VLID-Piperidide; lactam N-11)			54	4.7	
CC(C)C[C@@H]1NC(=O)C[C@@H](C(=O)N2CCCCC2)NC(=O)[C@H](CC(C)C)N(C)C(=O)[C@H](CC(C)C)NC(=O)[C@H](CC(C)C)N(C)C(=O)[C@H]([C@@H](C)O)NC(=O)CN(C)C1=O [DP-726] (L[Sar]T[NMeL]L[NMeL]D-Piperidide; lactam N-7)			75	17	
CC[C@H](C)[C@H]1C(=O)NCC(=O)N(C)[C@@H](CC(C)C)C(=O)N[C@@H](CC(C)C)C(=O)N[C@H](C(=O)N2CCCCC2)CC(=O)N(C)CCC(=O)N(C)[C@@H](C)C(=O)N[C@@H](CC(C)C)C(=O)N[C@@H]([C@@H](C)O)C(=O)N2CCC[C@H]2C(=O)N[C@@H](Cc2ccccc2)C(=O)N(C)[C@@H](Cc2ccccc2)C(=O)N1C [DP-91] ([NMeβAla][NMeA]LTPF[NMeF][NMeI]G[NMeL]LD-Piperidide; lactam N-12)	58	20			
CC(C)C[C@H]1C(=O)N(C)[C@@H](C)C(=O)N(C)[C@@H](CC(C)C)C(=O)N[C@H](C(=O)N2CCCCC2)CC(=O)N(C)[C@H](C)C(=O)N(C)[C@@H](Cc2ccccc2)C(=O)N[C@@H]([C@@H](C)O)C(=O)N(C)[C@@H](C)C(=O)N(C)[C@@H](CC(C)C)C(=O)NCC(=O)N1C [DP-435] ([dNMeA][NMeF]T[NMeA][NMeL]G[NMeL][NMeA][NMeL]D-Piperidide; lactam N-10)			41	16	
CC(C)[C@@H]1NC(=O)[C@H](Cc2ccccc2)N(C)C(=O)[C@H](C)N(C)C(=O)[C@H]([C@@H](C)O)NC(=O)[C@H](C)N(C)C(=O)CNC(=O)[C@H](Cc2ccccc2)NC(=O)[C@@H](C)N(C)C(=O)C[C@@H](C(=O)N(C)[C@@H](Cc2ccccc2)C(=O)N(C)[C@@H](Cc2ccccc2)C(=O)N[C@@H](C)C(=O)N2CCCCC2)NC(=O)[C@H](C(C)C)N(C)C1=O [DP-504] ([dNMeA]FG[NMeA]T[NMeA][NMeF]V[NMeV]D[NMeF][NMeF]A-Piperidide; lactam N-10)			216	31	
CC(C)C[C@@H]1NC(=O)[C@H](Cc2ccccc2)N(C)C(=O)CN(C)C(=O)[C@H]([C@@H](C)O)NC(=O)[C@H](CC(C)C)N(C)C(=O)[C@H](C)NC(=O)C[C@@H](C(=O)N(C)[C@@H](CC(C)C)C(=O)N[C@H](C(=O)N(C)[C@@H](C)C(=O)N[C@@H](C)C(=O)N2CCCCC2)C(C)C)NC1=O [DP-566] (A[NMeL]T[Sar][NMeF]LD[NMeL]V[NMeA]A-Piperidide; lactam N-7)			38	11	
CC(C)C[C@H]1C(=O)N[C@@H](C(C)C)C(=O)N(C)[C@@H](Cc2ccccc2)C(=O)N(C)[C@@H](C)C(=O)N[C@@H](Cc2ccccc2)C(=O)N[C@H](C(=O)N(C)[C@@H](Cc2ccccc2)C(=O)N[C@@H](C)C(=O)N2CCCCC2)CC(=O)N(C)CCC(=O)N[C@@H]([C@@H](C)O)C(=O)N(C)CC(=O)N1C [DP-200] ([NMeβAla]T[Sar][NMeL]V[NMeF][NMeA]FD[NMeF]A-Piperidide; lactam N-9)			57	22	
CC[C@H](C)[C@@H]1NC(=O)[C@H](C)N(C)C(=O)[C@H]([C@@H](C)O)NC(=O)[C@H](Cc2ccccc2)N(C)C(=O)CNC(=O)[C@H](CC(C)C)N(C)C(=O)[C@H](C(C)C)NC(=O)[C@H](CC(C)C)N(C)C(=O)[C@H](Cc2ccccc2)NC(=O)[C@H](C)N(C)C(=O)CCCN(C)C(=O)C[C@@H](C(=O)N2CCCCC2)NC1=O [DP-108] ([NMeGABA][NMeA]F[NMeL]V[NMeL]G[NMeF]T[NMeA]ID-Piperidide; lactam N-12)			48	22	

Source: patent US9409952B2, “Peptide-compound cyclization method” (Chugai Seiyaku Kabushiki Kaisha, priority 2011, dated 2016)
